Measured values as given in a melting point compilation (Tetko et al.; mined from patent text by program, amines drawn as free bases though some values may be those of a salt).

SMILES	melting point
CC(C)(C)OC(=O)Oc1ccc(C(C(=O)OC(c2ccccc2)c2ccccc2)N2CC(N)C2=O)cc1 (stereo not drawn)	120 to 122 °C
COc1ccccc1CNc1ccc2cc(Nc3nnc(C(F)(F)F)o3)ccc2n1	198 °C
COc1ccc(-c2[nH]cnc2-c2cc(OC)c(O)c(OC)c2)cc1O	172 to 173 °C
COc1cc2cc(C(=O)N3CC(CCl)c4c3cc(NC(=O)C(C)(C)c3ccccc3[N+](=O)[O-])c3ccccc43)[nH]c2c(OC)c1OC (stereo not drawn)	139 to 143 °C
Cc1ccc(C2CCN(CCCCNC(=O)c3ccc(-c4ccc(C#N)cc4)cc3)CC2)c(O)c1	184 °C
CCOC(=O)/C=C(C)/C(F)=C/C=C(\C)C=O	70 to 74 °C
NNc1nc(Cl)nc2c(Cl)cc(Cl)cc12	> 280 °C
CN(C(=O)c1ccc2nonc2c1)[C@H]1CC[C@H](n2ncnn2)CC1	172 to 175 °C
CCCc1c(OCCOCCOc2ccc3ccc(OCCCC(=O)O)cc3c2C(C)=O)ccc(C(C)=O)c1O	71 to 75 °C
C#CCN(C)CC(O)c1cccc(O)c1 (stereo not drawn)	102 to 103 °C
Nc1cccc(C(=O)Nc2ccc(NNC=O)cc2)c1	177 to 178 °C
COC(=O)c1cn2c(-c3ccc(-c4ccccc4)cc3)csc2n1	186 to 188 °C
COC(OC)C(CC#N)C(C)(C)S(=O)(=O)c1ccc(C)cc1 (stereo not drawn)	99 °C
CC(C)(C)c1cc(C2=CCOCC2)c(O)c(C(C)(C)C)c1	135 to 139 °C
O=C(Nc1ccc2c(c1)c1ccccc1n2CCO)c1ccccc1Cl	168 to 169 °C
CC1(c2ccc(O)cc2)Cc2cc(OCC(=O)O)c(Cl)c(Cl)c2C1=O (stereo not drawn)	220 to 222 °C
C=C(CCl)C(C(=O)OC(c1ccccc1)c1ccccc1)N1C(=O)C2N=C(Cc3ccccc3)OC21 (stereo not drawn)	82 to 83 °C
Cc1ccc(C(C#N)=NOS(C)(=O)=O)cc1C	91 to 95 °C
O=C(NC(CCC(=O)N1CCCC1C(=O)O)C(=O)O)c1ccccc1 (stereo not drawn)	102 to 104 °C
CCOC[C@]1(OC)CC[C@H]2[C@@H]3CCC4=CC(=O)CCC4=C3[C@@H](c3ccc(C(C)=O)cc3)C[C@@]21C	134 to 137 °C
Cc1cc(Cc2ccsc2)c(NC(=O)OCc2ccccc2)c(=O)n1CC(=O)O	153 to 155 °C
O=S(=O)(Nc1cnc(-n2ccnc2)nc1NCc1ccc(Br)cc1)c1ccc(Cl)cc1	183 to 185 °C
COc1ccc(-c2nc(N3CCOCC3)c3c(C)c(C#N)sc3n2)cc1	204 to 206 °C
Fc1cccc(F)c1-c1ncc(Oc2cccc(Cl)c2)nn1	132 to 137 °C
OCCC(O)OCn1cc(Br)c2c(Cl)ncnc21 (stereo not drawn)	152 °C

SMILES	melting point
Nc1cccc(NC(=O)C(=O)N2CCC(Cc3ccc(F)cc3)CC2)c1	117 to 120 °C
COC(=O)Cc1nsc(NC(=O)c2ccccc2)n1	143 °C
c1ccc(Cc2c[nH]c(-c3ncc[nH]3)n2)cc1	138 to 140 °C
FC(F)(F)c1cccc(C(=CC2=NCCN2)c2ccc3ccccc3n2)c1	76.5 °C
COc1cc(Nc2nccc(Nc3cccc(OC(F)(F)F)c3)n2)cc(OC)c1OC	154 to 156 °C
Cc1c(-c2ccc(O)cc2)sc(C=O)c1-c1cccc(O)c1	208 to 210 °C
Nc1nc2n(c(=O)c1N=O)CCN2Cc1ccc(Cl)cc1	273 to 275 °C
COC(=O)c1ccc(CC(C)NCC(O)c2ccccc2)c(OC)c1 (stereo not drawn)	102 to 104 °C
COc1ccc(NC(=O)C(C#N)C(=O)c2cccn2C)cc1 (stereo not drawn)	192 to 193 °C
O=C1OC(=O)c2cc3cc(Cl)ccc3cc21	220 °C
COC(=O)c1c(-c2cc(OC)c(OC)c(OC)c2)c2cc(OC)c(OCc3cccs3)cc2c(=O)n1-c1ccc(N)cc1	205 to 206 °C
CCOC(=O)c1ccccc1NC(=O)CN1C(=O)c2ccccc2C1=O	187 °C
COc1ccc2c3c(c(=O)oc2c1)CN(Cc1cc(OC)c(OC)c(OC)c1)CC3	171 to 173 °C
CCOC(=O)C(=C1NCCCS1)[N+](=O)[O-]	100 to 102 °C
Cc1onc(NS(=O)(=O)c2ccccc2-c2ccc(-c3ncco3)cc2Cn2ccc(C(F)(F)F)n2)c1C	89 to 99 °C
C#CCOC(=O)C=CC(=O)OCC#C	78 to 80 °C
CS(=O)(=O)c1ccc(-c2sc(-c3ccncc3)nc2-c2ccc(F)cc2)cc1	171 to 176 °C
O=c1[nH]cnc2cccc(Br)c12	239 to 240 °C
CCN=C1SC(=CC(=O)O)C(=O)N1CC	148 to 152 °C
CCN1CCC(n2nc(-c3c(-c4ccccc4)nn4ccccc34)ccc2=O)CC1	134 to 135 °C
O=c1c(Br)c(OCc2ccc(Cl)cc2F)cnn1-c1ccc(Cl)c(Cl)c1	172 to 173 °C
Nc1ncc(Sc2ccc([N+](=O)[O-])cc2)s1	162 to 164 °C
CCOCC1OC(n2cc(C(F)(F)F)c(=O)[nH]c2=O)CC1O (stereo not drawn)	188 to 190 °C
O=C(O)Cc1csc(Nc2ccc(Cl)c(C(F)(F)F)c2)n1	108 to 112 °C
Cc1ccc(S(=O)(=O)N2CCC[C@H]2C(=O)N2c3ccc(F)c(Cl)c3C(=O)CC2C)cc1 (stereo partly drawn)	135 to 136 °C

SMILES	melting point
CN(C)[C@H]1CC[C@@H](n2cc(-c3ccc(Oc4ccccc4)cc3)c3c(N)ncnc32)CC1	180 to 182 °C
COc1ccc(Cc2n[nH]c(=O)c3ccccc23)cc1N	212 to 214 °C
Brc1ccc(OCCCCCN2CCN(c3nccs3)CC2)cc1	73 to 75 °C
CN1C(=O)c2ccccc2OC1C(Cl)(Cl)Cl (stereo not drawn)	82 to 84 °C
NS(=O)(=O)c1nc2ccc(O)cc2s1	209 °C
COc1ccc(Cl)cc1C1(F)C(=O)Nc2ccc(C)cc21 (stereo not drawn)	193 to 195 °C
CC(C)n1nc(-c2c(-c3ccccc3)nn3ccc(N4CCNCC4)cc23)ccc1=O	203 to 204 °C
Cn1c(-c2ccc(OC3CCN(C4CCC4)CC3)cc2)nc2ccccc2c1=O	168 to 171 °C
CN1CC(=O)N(c2ccc(C(C)(C)C)cc2)C1=S	156 to 158 °C
CCCCS(=O)(=O)NC1Cc2ccc(C(C)=O)cc2C1 (stereo not drawn)	90 to 92 °C
CSc1cc2ccc(-c3ccccc3)cc2cc1O	149 to 150 °C
Cc1cc(O)c(SC(C)(C)C)c(=O)o1	108 to 112 °C
O=C(O)Cn1c(=O)oc2cc(-c3ccccc3)c(Cl)cc21	200 to 203 °C
O=S(=O)(c1nc(-c2ccccc2)c(-c2ccccc2)n1COCc1ccccc1)C(F)(F)C(F)F	97.5 to 98.5 °C
Cc1nn(-c2c(Cl)cc(C(F)(F)F)cc2Cl)c(N)c1C#C[Si](C)(C)C	121 to 123 °C
Cc1ccc2c(c1O)NC(S(=O)O)C1CC(C=CC(N)=O)=CN1C2=O (stereo not drawn)	252 to 255 °C
N#CCCn1[nH]c(C#N)cc1=O	162 to 164 °C
Nc1cccc(C#Cc2c(F)c(F)nc(F)c2F)c1	172 to 173 °C
COc1ccccc1CN[C@H]1CCCN(CC(=O)O)[C@H]1c1ccccc1 (relative stereo)	58 °C
CC(=O)n1nc(-c2cc(C(C)(C)C)c(O)c(C(C)(C)C)c2)c2cccnc21	169 to 171 °C
COc1ccc2oc3ccc(I)cc3c2c1C(=O)Nc1ccncc1	255 to 257 °C
Cc1sc(C(N)=O)c2c1-c1c(cnn1CC(F)(F)F)CC2	144 to 145 °C
N=C(N)NNC1=NS(=O)(=O)c2ccccc21	252 to 253 °C
O=C(c1ccccc1Nc1ccc(O)cc1)N1CCOCC1	214 to 216 °C
CCCc1nn(C)c2c(=O)n(CCOc3cccc(OC(C)(CC)C(=O)O)c3)c(C)nc12 (stereo not drawn)	130 to 132 °C

SMILES	melting point
Cc1c(-c2ccc(C=CC(=O)OC(C)(C)C)cc2)nc2n1CCc1ccccc1C2OC1CCN(C)CC1 (stereo not drawn)	185 °C
COc1ccc2nc(CSc3cc(C)ccn3)[nH]c2c1	138 to 140 °C
CCN1c2nc(Cl)ccc2NC(=O)c2cc(CCc3cccc(NS(C)(=O)=O)c3)cnc21	131 to 132 °C
Brc1c(NC2=NCCN2)ccc2c1ncn2Cc1ccccc1	197 to 198 °C
COc1cc(C(C)=O)ccc1OCCCCN1C2CCC1CC(c1n[nH]c3cc(F)ccc13)C2 (stereo not drawn)	148 to 149 °C
CNc1nc(C(C)c2ccc(-c3ccccc3)c(F)c2)c(C(=O)O)s1 (stereo not drawn)	133 to 134 °C
CC(C)OC(=O)Nc1cccc(-c2ccnc3c(C(=O)c4ccsc4)cnn23)c1	122 to 124 °C
CCn1c(=O)n(OCc2ccccc2)c(=O)c2cc(F)c(N3CCNCC3)cc21	166 to 167 °C
COc1cc(COc2nn(-c3ccccc3)cc2C=O)ccc1OCc1nc(-c2cccnc2)oc1C	161 to 162 °C
CCCc1nc(Sc2ccc(OC)cc2)c(CC(=O)O)n1Cc1cc2c(cc1Cl)OCO2	187 °C
CC(C)(C)NC(=O)COc1cc2c(cc1C#Cc1ccccc1)NC(=O)CC(c1cccc(C#N)c1)=N2	> 250 °C
CCc1cc(=O)c2nc(OCCO[Si](c3ccccc3)(c3ccccc3)C(C)(C)C)ccc2[nH]1	209 to 210 °C
CCn1nnc(-c2cccc(-c3ccnc4c(C(=O)c5cccs5)cnn34)c2)n1	174 °C
CC[C@@H](NC(=O)CCCCl)C(N)=O	118 to 123 °C
CCCCCCCCCCCCCCCCCC(CCCCCCCCCCCCCCCCC)=NO	66 to 67 °C
COC(=O)COc1cc2cccnc2c(-c2cccc([N+](=O)[O-])c2)n1	160 to 162 °C
CC(C)(C)c1ccc(C(=O)Nc2cc[nH]c(=O)n2)cc1	> 260 °C
Nc1cc(Oc2ccc(NC(=O)Nc3ccc(-c4ccccn4)c(C(F)(F)F)c3)cc2)ncn1	188 to 192 °C
Oc1cccc(-c2cc3n(n2)-c2ccccc2CC3)c1	172 to 175 °C
O=C(O)Cc1ccc(OCc2ccccc2)cc1OCc1ccccc1	139 °C
O=C(Nc1ccc(-c2ncc(-c3ccc(NC(=O)C4CCCCCC4)cc3)[nH]2)cc1)c1ccc(Cl)cc1	325 to 327 °C
O=C1C(=O)c2ccc(-c3ccccc3C(F)(F)F)cc2C2=C1SCC1(CCNCC1)O2	125 to 127 °C
COc1ccc2c(c1)CCC1C2CCC2(C)C1CCC2N(C)CCOCCO (stereo not drawn)	102 °C
